According to ChEMBL document CHEMBL1201862, “PubChem BioAssay data set” (2004):
Each block holds one compound with its values, some of them ahead of it. Calls of active or inactive are those of the source. For most assays here, no stated cut-off is given here; in the data, actives have a measured IC50 and inactives only a lower limit.

Assays:
Trypsin = Trypsin (Sus scrofa, UniProt P00761); experiment: trypsin protease activity blockade – biochemical, quenched peptide fluorescence, cherry-pick, selectivity assay for Rce1 protease inhibitor project, dose response (AID 488789)
Trypsin, sequence (P00761 whole entry): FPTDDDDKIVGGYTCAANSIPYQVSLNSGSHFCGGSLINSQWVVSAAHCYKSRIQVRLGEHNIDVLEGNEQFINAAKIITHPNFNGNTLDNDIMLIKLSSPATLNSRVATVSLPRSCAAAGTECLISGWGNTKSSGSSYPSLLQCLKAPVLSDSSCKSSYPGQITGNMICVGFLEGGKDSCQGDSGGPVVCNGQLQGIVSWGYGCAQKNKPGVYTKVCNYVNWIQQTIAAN

[1] = blockers of bursicon-stimulated LGR2 cAMP reporter – cell-based, HEK293, CRE-luciferase reporter, cherry pick, set 2, dose response (AID 743343); assay type: functional;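 further: transfected cells were stimulated with diluted bursicon conditioned medium after compound addition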
[2] = blockade of melanocortin 4 receptor signaling – cell-based, plate reader, cherry pick, counter-screen for LGR2 antagonist project, dose response (AID 743444); assay type: functional;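 further: transfected HEK 293 cells stimulated with alpha-MSH peptide; potency of inhibitors of the alpha-MSH evoked signal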
HEK293 [3] = experiment: inhibition of NOD1-driven NF-kB reporter – cell-based, luminescence, uHTS, primary screen (AID 1578); assay type: functional; details: Homo sapiens
HEK293 [4] = experiment: cells; assay type: functional, cell-based; details: Homo sapiens
HEK293 [5] = experiment: cells; assay type: functional, cell-based; details: Homo sapiens; remark: listed apart in the source
[6] = target: Nucleotide-binding oligomerization domain-containing protein 2 (Homo sapiens, UniProt Q9HC29); experiment: inhibition of NOD2-driven NF-kB reporter – cell-based, luminescence, uHTS, HEK293 (AID 1566); assay type: functional
HEK293 [7] = experiment: NOD2 signaling inhibitors in MDP-stimulated cells, cell-based, uHTS, luminescence (AID 2001); assay type: functional; details: Homo sapiens
HEK293 [8] = experiment: cells; assay type: functional, cell-based; details: Homo sapiens; remark: listed apart in the source
Tumor necrosis factor = Tumor necrosis factor (Homo sapiens, UniProt P01375); experiment: analog potency on TNFa NF-kB signaling – cell-based, revised, SAR follow-up (AID 2337); assay type: functional
Tumor necrosis factor, sequence (P01375 whole entry, the tested form may be a part): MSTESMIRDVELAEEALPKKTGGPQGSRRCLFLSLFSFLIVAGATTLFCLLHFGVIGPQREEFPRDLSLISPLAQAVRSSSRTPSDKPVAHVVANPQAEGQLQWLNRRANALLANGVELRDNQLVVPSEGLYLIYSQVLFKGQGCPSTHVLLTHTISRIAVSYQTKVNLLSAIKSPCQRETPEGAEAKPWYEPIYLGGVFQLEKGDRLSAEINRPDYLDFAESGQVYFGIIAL

[9] = target: T1, Nucleotide-binding oligomerization domain-containing protein 1 (Homo sapiens, UniProt Q9Y239); experiment: blockers of NOD1 pathway activity – revised, SAR follow-up (AID 2333); assay type: functional
T1 sequence (Q9Y239 whole entry): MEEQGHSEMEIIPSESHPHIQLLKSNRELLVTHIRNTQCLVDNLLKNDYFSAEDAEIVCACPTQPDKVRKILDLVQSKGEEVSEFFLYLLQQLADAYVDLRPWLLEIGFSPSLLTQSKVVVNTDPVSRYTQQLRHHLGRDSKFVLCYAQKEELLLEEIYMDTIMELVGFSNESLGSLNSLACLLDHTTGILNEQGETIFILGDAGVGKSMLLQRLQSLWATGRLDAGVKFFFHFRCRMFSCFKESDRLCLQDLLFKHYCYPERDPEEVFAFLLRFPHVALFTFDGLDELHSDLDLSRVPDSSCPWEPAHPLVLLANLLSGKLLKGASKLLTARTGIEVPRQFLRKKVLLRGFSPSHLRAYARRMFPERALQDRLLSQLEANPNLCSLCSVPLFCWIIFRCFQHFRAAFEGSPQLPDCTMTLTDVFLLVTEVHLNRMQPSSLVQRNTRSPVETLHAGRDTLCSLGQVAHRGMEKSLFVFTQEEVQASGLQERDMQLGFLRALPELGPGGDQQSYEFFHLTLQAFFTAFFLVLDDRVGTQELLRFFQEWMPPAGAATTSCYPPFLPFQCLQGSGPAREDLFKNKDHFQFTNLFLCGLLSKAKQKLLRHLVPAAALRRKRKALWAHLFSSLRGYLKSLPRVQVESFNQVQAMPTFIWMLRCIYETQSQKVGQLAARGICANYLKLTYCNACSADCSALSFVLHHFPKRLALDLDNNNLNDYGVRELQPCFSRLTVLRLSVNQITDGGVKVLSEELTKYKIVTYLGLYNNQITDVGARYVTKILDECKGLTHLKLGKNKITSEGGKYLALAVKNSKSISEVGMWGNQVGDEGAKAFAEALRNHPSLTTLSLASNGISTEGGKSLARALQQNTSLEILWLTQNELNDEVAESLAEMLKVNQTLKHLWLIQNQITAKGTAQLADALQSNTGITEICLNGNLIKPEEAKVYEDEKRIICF

HEK293 [10] = experiment: cells; details: Homo sapiens
SUMO-activating enzyme [11] = target: T2, SUMO-activating enzyme (Homo sapiens, UniProt Q9UBT2); experiment: blockers of UBC9-mediated SUMO conjugation – biochemical, AlphaScreen, SUMOylation inhibitor project, confirmation (AID 2018); assay type: functional
T2 sequence (Q9UBE0 whole entry): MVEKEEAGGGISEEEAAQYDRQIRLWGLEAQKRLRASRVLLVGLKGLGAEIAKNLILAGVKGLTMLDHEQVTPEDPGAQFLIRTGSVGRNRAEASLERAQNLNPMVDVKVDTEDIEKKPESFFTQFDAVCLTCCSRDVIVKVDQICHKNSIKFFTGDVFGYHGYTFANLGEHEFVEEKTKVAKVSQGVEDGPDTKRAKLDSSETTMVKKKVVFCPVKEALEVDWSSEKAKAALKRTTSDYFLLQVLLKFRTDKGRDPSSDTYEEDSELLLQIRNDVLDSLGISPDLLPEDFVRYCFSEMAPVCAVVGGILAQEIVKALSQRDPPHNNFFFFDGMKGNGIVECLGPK
T2 sequence (Q9UBT2 whole entry): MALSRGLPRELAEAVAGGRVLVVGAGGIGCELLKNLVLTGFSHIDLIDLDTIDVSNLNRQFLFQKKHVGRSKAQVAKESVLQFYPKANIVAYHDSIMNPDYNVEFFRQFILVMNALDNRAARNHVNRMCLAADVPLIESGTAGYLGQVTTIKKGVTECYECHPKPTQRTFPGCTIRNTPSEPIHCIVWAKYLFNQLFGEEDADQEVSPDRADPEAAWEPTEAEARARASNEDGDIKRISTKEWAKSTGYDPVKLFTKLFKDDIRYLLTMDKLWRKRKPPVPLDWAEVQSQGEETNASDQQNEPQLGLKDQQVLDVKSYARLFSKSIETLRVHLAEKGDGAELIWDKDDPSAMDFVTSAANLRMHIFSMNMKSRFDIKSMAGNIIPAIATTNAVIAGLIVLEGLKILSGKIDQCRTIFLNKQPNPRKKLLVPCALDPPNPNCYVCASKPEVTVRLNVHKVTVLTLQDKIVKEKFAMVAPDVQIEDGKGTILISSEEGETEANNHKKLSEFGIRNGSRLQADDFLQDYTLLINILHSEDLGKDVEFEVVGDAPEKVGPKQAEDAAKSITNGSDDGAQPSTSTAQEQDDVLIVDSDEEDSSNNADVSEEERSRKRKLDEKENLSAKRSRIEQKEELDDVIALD

[12] = target: T3, Voltage-gated N-type calcium channel alpha-1B subunit/Amyloid beta A4 precursor protein-binding family A member 1 (Homo sapiens, UniProt Q00975+Q02410); assay type: protein assay
T3 sequence (Q00975 whole entry): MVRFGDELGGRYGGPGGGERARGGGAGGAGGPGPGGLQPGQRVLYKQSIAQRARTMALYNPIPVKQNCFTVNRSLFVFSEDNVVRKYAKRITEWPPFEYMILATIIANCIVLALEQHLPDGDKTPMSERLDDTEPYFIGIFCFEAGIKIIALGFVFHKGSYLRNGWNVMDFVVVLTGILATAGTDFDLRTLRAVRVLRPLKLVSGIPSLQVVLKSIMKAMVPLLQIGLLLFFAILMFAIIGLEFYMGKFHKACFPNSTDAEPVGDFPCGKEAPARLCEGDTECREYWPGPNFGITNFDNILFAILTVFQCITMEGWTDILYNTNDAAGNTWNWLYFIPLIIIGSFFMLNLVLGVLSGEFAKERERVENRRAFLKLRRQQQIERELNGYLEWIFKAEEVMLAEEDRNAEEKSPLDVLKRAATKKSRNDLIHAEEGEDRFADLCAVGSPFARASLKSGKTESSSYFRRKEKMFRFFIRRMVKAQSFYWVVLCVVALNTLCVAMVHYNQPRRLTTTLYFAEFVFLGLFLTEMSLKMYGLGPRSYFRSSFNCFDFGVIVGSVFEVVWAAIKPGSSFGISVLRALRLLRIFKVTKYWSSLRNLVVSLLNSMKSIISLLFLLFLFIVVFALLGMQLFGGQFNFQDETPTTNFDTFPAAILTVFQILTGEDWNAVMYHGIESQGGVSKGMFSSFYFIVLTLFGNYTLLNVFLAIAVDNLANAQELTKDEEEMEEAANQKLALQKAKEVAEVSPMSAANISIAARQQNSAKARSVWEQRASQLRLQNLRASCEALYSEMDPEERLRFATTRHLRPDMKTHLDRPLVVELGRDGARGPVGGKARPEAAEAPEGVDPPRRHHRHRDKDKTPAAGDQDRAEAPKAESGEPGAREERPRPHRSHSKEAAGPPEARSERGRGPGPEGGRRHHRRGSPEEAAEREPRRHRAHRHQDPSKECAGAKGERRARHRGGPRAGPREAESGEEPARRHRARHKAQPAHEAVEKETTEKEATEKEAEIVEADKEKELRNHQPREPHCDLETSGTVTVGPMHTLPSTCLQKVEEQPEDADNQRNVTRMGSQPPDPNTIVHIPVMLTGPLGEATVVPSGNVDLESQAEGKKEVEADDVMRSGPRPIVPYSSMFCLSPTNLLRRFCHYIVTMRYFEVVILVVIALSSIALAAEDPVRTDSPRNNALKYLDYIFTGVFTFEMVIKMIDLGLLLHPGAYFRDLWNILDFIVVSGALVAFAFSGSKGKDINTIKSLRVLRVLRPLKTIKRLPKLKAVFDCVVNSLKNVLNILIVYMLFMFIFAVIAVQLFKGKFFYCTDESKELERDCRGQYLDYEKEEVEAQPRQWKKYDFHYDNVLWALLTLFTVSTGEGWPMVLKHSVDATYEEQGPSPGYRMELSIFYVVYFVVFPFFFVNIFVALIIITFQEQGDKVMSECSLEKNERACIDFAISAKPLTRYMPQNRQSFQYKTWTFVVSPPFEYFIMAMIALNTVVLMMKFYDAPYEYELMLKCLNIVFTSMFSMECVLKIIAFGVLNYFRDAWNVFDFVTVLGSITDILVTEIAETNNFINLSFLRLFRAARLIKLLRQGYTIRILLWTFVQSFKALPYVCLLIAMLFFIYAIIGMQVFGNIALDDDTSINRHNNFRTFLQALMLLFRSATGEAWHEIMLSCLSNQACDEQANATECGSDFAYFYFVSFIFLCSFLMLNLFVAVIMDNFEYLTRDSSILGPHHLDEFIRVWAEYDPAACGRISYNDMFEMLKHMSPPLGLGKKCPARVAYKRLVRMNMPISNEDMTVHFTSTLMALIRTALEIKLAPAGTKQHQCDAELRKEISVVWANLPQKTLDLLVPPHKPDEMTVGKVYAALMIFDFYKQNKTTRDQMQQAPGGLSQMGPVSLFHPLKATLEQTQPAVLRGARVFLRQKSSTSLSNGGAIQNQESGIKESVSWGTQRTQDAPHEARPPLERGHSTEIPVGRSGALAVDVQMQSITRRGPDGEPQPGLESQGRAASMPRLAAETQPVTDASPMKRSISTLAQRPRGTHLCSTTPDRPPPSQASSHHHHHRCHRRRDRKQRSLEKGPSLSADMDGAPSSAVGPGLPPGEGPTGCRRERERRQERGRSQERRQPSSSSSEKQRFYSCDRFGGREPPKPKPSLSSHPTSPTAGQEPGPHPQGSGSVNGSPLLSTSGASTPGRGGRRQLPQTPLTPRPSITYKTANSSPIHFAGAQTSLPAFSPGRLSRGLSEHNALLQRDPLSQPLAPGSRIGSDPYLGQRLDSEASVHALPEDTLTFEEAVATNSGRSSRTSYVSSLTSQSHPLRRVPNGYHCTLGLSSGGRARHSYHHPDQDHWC
T3 sequence (Q02410 whole entry): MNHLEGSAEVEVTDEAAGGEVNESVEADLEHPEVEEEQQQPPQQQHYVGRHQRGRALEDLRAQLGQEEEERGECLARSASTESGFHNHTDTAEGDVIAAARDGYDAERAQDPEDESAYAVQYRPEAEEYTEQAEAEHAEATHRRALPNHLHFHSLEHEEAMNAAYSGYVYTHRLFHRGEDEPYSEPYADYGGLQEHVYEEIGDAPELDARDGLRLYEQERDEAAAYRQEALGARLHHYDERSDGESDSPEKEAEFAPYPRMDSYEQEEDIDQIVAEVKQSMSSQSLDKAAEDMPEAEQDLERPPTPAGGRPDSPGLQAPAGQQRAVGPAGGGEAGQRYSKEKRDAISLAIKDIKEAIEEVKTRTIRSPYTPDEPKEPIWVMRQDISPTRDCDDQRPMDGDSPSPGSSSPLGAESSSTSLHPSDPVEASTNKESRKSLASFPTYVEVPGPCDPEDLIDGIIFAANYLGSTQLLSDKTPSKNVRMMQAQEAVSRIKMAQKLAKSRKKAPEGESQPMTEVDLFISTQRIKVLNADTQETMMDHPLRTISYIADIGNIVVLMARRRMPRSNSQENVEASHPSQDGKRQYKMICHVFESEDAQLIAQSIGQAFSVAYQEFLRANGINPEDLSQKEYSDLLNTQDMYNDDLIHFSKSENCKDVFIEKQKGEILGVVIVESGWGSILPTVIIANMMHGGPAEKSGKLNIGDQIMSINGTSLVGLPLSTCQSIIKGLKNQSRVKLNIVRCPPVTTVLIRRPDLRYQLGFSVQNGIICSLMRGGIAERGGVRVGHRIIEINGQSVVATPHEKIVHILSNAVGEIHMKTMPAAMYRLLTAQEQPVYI

[13] = target: T3, Voltage-gated N-type calcium channel alpha-1B subunit/Amyloid beta A4 precursor protein-binding family A member 1; assay type: protein assay; remark: listed apart in the source
[14] = target: T4, Carboxy-terminal domain RNA polymerase II polypeptide A small phosphatase 1 (Homo sapiens, UniProt Q9GZU7); experiment: CTDSP1 inhibitors, concentration-response, biochemical, absorbance readout, ultra-high-throughput screen actives (AID 540297); assay type: functional
T4 sequence (Q9GZU7 whole entry): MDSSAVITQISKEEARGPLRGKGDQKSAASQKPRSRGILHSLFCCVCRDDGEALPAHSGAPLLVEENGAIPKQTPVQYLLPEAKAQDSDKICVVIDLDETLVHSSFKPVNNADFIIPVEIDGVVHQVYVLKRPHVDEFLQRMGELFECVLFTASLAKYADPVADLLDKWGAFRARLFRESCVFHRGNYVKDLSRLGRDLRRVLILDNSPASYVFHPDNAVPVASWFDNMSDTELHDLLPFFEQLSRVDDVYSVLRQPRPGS

[15] = target: 26S proteasome non-ATPase regulatory subunit 14 (Homo sapiens, UniProt O00487); experiment: inhibition of proteasome subunit RPN11 – biochemical, fluorescence polarization, uHTS hits, confirmation (AID 602368); assay type: functional
26S proteasome non-ATPase regulatory subunit 14, sequence (O00487 whole entry): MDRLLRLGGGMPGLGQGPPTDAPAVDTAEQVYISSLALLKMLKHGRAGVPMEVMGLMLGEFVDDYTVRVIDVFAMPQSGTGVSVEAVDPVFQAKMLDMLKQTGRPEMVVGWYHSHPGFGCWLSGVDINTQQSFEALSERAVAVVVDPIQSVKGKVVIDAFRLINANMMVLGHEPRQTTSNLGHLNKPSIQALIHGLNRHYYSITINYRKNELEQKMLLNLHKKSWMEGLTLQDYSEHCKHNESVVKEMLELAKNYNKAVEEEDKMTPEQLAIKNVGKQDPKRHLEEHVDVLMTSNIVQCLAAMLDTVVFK

[16] = target: 72 kDa type IV collagenase (Homo sapiens, UniProt P08253); experiment: Dose Response validation of uHTS RPN11 inhibitor hits using a MMP-2 Fluorescence assay.; assay type: functional
Prothrombin = Prothrombin (Bos taurus, UniProt P00735); experiment: thrombin protease inhibitors – biochemical, fluorescence polarization, uHTS hits, dose response (AID 602369); assay type: functional
[17] = Counterscreen for IDE inhibitors: Luminescence-based cell-based high throughput dose response assay to identify compounds that are cytotoxic to HEK cells. [Related pubchem assays: 434962 (Primary screen (IDE inhibitors in singlicate)), 449730 (Counterscreen (Cytotoxicity in triplicate)), 435028 (Confirmation (IDE inhibitors in triplicate)) …; assay type: functional; details: HEK293
Insulin-degrading enzyme = target: T5, Insulin-degrading enzyme (Homo sapiens, UniProt P14735); experiment: Dose Response: Fluorescence polarization-based cell-based high throughput dose response assay for inhibitors of insulin-degrading enzyme (IDE). [Related pubchem assays: 434962 (Primary screen (IDE inhibitors in singlicate)), 449730 (Counterscreen (Cytotoxicity in triplicate)), 435028 (Confirmation (IDE inhibitors in triplicate)), 434984 (Summary …; assay type: functional
T5 sequence (P14735 whole entry): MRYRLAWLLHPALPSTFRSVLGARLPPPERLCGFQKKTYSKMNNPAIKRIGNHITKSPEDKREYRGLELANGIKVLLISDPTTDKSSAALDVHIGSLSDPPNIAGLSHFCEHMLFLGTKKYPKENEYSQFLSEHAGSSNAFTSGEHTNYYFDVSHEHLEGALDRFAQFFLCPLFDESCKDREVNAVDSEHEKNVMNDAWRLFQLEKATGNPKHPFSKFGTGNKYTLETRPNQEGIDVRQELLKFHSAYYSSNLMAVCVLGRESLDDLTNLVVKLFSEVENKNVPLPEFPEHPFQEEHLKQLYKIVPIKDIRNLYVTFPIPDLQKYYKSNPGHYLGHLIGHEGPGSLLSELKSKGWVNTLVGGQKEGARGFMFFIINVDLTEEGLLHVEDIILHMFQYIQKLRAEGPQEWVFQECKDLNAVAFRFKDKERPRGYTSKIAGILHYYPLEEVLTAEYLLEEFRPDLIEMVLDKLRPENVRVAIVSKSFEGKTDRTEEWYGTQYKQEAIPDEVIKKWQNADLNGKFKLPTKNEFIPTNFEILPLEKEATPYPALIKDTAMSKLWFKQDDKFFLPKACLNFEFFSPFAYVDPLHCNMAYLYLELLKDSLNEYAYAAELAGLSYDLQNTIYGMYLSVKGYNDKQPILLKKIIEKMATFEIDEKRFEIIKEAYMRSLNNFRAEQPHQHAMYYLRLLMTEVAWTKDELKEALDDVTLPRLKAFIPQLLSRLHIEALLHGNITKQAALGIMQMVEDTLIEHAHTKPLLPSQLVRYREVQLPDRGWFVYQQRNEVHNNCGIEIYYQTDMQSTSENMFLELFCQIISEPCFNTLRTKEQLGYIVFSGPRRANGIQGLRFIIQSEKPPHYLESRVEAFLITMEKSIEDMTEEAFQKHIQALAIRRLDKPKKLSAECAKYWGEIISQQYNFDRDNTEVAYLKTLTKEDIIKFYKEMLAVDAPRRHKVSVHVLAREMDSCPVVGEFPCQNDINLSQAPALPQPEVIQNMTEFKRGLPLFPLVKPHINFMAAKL

SUMO-activating enzyme [18] = target: T2, SUMO-activating enzyme; experiment: blockers of SAE1/SAE2–UBC9 SUMO transfer – biochemical, HTRF, uHTS, primary screen (AID 2006); assay type: protein-complex assay

SMILES: c1ccc(-n2cnnc2SCc2cn3cccnc3n2)cc1
AC50 (Trypsin): 9.66 µM (active) | AC50 [1]: 30.1 µM (active) | AC50 [2]: 19.4 µM (active)

SMILES: CC1CCc2c(sc(NC(=O)/C=C/c3cccs3)c2C(=O)O)C1 (stereo not drawn)
EC50 (HEK293 [3]): 6.14 µM (active) | IC50 (HEK293 [4]): > 20 µM (inactive) | IC50 (HEK293 [5]): > 20 µM (inactive) | EC50 [6]: > 20 µM (inactive) | IC50 (HEK293 [7]): 16.7 µM (inactive) | IC50 (HEK293 [8]): > 20 µM (inactive) | IC50 (Tumor necrosis factor): 9.63 µM (active) | IC50 [9]: 1.55 µM (active) | IC50 (HEK293 [10]): > 20 µM (inactive)

IC50 (SUMO-activating enzyme [11]): 13.8 µM (active) | IC50 [12]: 4.83 µM (active) | IC50 [13]: > 50 µM (inactive) | IC50 [14]: 4.56 µM (active) | IC50 [15]: 8.12 µM (active) | IC50 [16]: > 100 µM (inactive) | IC50 (Prothrombin): 51.4 µM (active)
SMILES: NS(=O)(=O)c1ccc(NC(=O)c2ccc(-c3ccccc3)cc2)cc1

SMILES: Cc1cccc(C(=O)Nc2ccnc(-c3ccncc3)n2)c1
IC50 [17]: 22.9 µM (not active) | IC50 (Insulin-degrading enzyme): 7.39 µM (active)

SMILES: O=C(O)c1ccc2c(c1)C1C(Cl)C(Sc3ccccc3[N+](=O)[O-])CC1C(c1cccc([N+](=O)[O-])c1)N2 (stereo not drawn)
IC50 (SUMO-activating enzyme [11]): 2.26 µM (active) | IC50 (SUMO-activating enzyme [18]): 23.6 µM (active)
